Test results reported in paper PMC9127186, “Molecular Basis Underlying Hepatobiliary and Renal Excretion of Phenolic Acids of Salvia miltiorrhiza Roots (Danshen)” (Frontiers in Pharmacology, 2022).

What was measured:
human MRP3 = human MRP3 (Homo sapiens, UniProt O15438); assay: Vesicular transport assay, inside-out membrane vesicles expressing human MRP3; settings: 10 min
Protocol: (§1) Inside-out membrane vesicles (5 mg protein/mL), prepared from insect cells expressing human multidrug resistance-associated protein (MRP) 2, MRP3, MRP4, breast cancer resistance protein (BCRP), bile salt export pump (BSEP), and multidrug resistance protein (MDR) one and rat Mrp2, Mrp4, Bcrp, and Bsep, and vesicles (5 mg protein/mL; prepared from the insect cells expressing no ABC transporter; serving as negative control) were obtained from Genomembrane (Kanazawa, Japan).
(§2) The test Danshen compounds at 100 µM final concentration were separately incubated with the membrane vesicles for 10 min. Buffer C (50 mM MOPS-tris, 70 mM KCl, 7.5 mM MgCl2, pH 7.0) was used for preincubation and incubation, while buffer D (40 mM MOPS-tris, 70 mM KCl, pH 7.0) was used for vesicle washing. The transport rate (pmol/mg protein/min) of the test Danshen compound was calculated using Equation (2): Transport=(CV×VV)/T/WV (2) where C V, V V, T, and W V represent concentration of the compound in vesicular lysates supernatant (μM), volume of the lysates (μL), incubation time (10 min), and amount of vesicle protein amount per well (0.05 mg), respectively. Differential transport of the test Danshen compound between ATP-containing vesicles and AMP-containing vesicles was defined as net transport ratio (TransportATP/TransportAMP ratio). […] All the incubation samples were analyzed by liquid chromatography/mass spectrometry.

human MRP4 = target: T1, human MRP4 (Homo sapiens, UniProt O15439); assay: Vesicular transport assay, inside-out membrane vesicles expressing human MRP4; settings: for TransportATP/TransportAMP ratio (net transport ratio): 10 min
T1 sequence (O15439 1-1325): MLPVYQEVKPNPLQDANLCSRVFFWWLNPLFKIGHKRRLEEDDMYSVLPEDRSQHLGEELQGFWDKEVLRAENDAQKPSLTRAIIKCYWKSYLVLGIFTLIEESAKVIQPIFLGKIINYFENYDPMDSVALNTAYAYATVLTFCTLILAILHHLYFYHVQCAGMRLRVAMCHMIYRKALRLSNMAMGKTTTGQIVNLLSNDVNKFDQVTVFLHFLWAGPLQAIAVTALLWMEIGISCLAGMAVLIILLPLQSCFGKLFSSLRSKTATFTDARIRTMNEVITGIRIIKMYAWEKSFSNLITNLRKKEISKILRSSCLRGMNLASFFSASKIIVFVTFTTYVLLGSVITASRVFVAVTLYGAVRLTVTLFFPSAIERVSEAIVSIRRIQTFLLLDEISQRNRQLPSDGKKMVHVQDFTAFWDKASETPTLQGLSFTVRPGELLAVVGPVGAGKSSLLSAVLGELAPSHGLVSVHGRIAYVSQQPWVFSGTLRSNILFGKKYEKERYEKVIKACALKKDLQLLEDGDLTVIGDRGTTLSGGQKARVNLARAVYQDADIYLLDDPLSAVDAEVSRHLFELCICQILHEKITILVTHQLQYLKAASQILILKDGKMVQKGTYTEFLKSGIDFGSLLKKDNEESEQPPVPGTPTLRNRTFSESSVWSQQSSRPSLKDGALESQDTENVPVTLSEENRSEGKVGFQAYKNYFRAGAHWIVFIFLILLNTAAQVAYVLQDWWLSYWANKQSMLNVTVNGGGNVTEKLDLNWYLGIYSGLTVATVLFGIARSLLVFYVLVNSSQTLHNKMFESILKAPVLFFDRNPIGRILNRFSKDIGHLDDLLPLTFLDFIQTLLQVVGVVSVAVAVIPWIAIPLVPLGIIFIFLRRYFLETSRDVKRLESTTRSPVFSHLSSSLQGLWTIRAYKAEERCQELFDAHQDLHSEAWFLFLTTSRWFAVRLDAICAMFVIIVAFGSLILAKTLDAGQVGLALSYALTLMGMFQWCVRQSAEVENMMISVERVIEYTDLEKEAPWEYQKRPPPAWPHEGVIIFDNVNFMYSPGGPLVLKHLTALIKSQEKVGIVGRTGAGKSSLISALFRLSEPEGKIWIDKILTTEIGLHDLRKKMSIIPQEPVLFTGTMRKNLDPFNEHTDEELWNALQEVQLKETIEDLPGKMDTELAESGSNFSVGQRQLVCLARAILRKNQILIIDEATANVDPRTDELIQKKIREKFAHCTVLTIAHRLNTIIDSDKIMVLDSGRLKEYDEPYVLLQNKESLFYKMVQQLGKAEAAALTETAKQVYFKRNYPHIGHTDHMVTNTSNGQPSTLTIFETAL
Protocol: as §1, §2

human BSEP = human BSEP (Homo sapiens, UniProt O95342); assay: Vesicular transport assay, inside-out membrane vesicles expressing human BSEP; settings: 10 min
Protocol: as §1, §2

[1] = Danshen phenolic acid at 100 μM final concentration, human MRP3 vesicles
[2] = Danshen phenolic acid at 100 μM final concentration, human MRP4 vesicles
[3] = Danshen phenolic acid at 100 μM final concentration, human BSEP vesicles

Chain of human BSEP (O95342 whole entry): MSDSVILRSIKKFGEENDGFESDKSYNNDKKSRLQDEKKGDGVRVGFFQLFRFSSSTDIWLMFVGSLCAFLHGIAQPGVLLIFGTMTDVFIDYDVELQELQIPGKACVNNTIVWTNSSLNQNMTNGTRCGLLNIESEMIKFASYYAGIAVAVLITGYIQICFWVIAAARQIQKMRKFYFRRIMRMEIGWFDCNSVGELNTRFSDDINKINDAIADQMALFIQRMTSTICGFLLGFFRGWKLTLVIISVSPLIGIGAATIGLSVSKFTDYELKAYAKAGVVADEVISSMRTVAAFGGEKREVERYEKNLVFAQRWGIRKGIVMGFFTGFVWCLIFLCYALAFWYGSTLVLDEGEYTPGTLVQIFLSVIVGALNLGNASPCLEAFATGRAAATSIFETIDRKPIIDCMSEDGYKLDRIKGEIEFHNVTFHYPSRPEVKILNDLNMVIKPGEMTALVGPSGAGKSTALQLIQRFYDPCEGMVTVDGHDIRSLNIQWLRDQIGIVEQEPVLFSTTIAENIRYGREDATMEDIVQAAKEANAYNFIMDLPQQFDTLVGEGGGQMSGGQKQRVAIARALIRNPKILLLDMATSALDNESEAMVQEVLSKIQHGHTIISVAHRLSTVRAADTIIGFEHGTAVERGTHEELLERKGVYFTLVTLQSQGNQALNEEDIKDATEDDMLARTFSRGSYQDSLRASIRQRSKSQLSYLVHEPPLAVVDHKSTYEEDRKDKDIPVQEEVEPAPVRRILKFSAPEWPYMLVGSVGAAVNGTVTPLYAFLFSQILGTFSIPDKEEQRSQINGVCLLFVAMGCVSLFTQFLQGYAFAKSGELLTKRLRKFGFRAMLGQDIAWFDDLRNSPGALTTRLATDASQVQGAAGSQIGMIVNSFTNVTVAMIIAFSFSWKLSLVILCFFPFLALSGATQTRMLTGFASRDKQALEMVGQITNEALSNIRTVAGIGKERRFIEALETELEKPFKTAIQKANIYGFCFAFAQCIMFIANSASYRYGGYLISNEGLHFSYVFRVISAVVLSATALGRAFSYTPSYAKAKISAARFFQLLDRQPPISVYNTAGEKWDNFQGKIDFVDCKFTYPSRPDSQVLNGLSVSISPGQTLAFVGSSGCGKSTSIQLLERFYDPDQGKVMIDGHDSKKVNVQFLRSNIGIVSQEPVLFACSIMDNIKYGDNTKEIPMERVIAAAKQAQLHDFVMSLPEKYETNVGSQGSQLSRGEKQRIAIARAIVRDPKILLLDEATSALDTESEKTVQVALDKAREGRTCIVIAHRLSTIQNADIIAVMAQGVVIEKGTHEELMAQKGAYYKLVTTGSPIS
Chain of human MRP3 (O15438 whole entry): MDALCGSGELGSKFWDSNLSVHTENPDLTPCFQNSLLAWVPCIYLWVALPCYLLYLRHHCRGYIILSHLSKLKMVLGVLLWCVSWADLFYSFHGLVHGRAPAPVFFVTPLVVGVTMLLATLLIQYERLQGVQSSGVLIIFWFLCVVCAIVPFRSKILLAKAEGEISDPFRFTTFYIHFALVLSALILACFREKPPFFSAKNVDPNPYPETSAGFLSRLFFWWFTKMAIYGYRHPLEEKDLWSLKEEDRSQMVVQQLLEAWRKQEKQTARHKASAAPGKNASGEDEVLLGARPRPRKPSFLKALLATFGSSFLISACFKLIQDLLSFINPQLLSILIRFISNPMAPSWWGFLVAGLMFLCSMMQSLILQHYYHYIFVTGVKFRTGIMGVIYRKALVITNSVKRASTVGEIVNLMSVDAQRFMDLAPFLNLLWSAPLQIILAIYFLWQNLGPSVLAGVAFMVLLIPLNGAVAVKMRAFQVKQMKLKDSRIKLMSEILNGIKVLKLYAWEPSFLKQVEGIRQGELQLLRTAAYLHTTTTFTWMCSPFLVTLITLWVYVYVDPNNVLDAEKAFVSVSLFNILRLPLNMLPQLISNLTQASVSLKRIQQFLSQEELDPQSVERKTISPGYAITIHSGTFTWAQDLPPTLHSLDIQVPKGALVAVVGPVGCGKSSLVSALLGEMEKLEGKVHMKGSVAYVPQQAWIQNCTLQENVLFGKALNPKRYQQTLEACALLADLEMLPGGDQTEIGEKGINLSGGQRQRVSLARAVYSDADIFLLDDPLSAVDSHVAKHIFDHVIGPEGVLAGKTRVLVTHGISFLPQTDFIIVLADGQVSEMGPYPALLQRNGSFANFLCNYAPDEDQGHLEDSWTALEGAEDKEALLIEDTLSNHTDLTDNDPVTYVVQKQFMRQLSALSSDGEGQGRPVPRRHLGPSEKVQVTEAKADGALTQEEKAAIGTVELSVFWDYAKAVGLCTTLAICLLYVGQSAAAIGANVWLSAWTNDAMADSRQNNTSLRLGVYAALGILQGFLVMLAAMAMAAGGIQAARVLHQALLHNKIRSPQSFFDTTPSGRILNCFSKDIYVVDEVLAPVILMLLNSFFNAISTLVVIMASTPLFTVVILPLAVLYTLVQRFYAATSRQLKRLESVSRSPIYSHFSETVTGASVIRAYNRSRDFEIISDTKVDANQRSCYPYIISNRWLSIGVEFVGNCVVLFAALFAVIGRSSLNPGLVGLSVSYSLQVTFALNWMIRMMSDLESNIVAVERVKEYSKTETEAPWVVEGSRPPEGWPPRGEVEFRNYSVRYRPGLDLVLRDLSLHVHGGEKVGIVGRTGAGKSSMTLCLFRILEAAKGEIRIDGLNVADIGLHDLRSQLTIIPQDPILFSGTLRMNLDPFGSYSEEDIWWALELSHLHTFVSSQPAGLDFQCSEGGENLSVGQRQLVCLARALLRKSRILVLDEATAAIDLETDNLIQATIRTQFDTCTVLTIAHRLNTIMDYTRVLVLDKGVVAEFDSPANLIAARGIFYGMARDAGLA

substrate of human MRP4 (human MRP4) | Molecule | TransportATP/TransportAMP ratio (net transport ratio) (human MRP3; [1]) | TransportATP/TransportAMP ratio (net transport ratio) (human MRP4; [2]) | TransportATP/TransportAMP ratio (net transport ratio) (human BSEP; [3]) | TransportATP/TransportAMP ratio (net transport ratio) (human MRP3; human, 100 μM, pH 7) | TransportATP/TransportAMP ratio (net transport ratio) (human MRP4; human, 100 μM, pH 7) | TransportATP/TransportAMP ratio (net transport ratio) (human BSEP; human, 100 μM, pH 7)
– | salvianolic acid B | 1.47 ± 0.33 | 1.99 ± 0.06 | 1.43 ± 0.32 | – | – | –
substrate | O=C(O)Cc1c(/C=C/C(=O)O[C@H](Cc2ccc(O)c(O)c2)C(=O)O)ccc(O)c1O [Salvianolic acid D, salvianolic acid D] | 1.35 ± 0.30 | 5.27 ± 0.51 | 1.19 ± 0.35 | – | – | –
– | O=C(/C=C/c1ccc(O)c2c1[C@H](C(=O)O)[C@@H](c1ccc(O)c(O)c1)O2)O[C@H](Cc1ccc(O)c(O)c1)C(=O)O [Lithospermic acid, lithospermic acid] | 1.72 ± 0.28 | 1.36 ± 0.14 | 0.83 ± 0.20 | – | – | –
– | O=C(/C=C/c1ccc(O)c(O)c1)O[C@H](Cc1ccc(O)c(O)c1)C(=O)O [Rosmarinic acid, rosmarinic acid] | – | – | – | 1.38 ± 0.01 | 1.99 ± 0.08 | 1.03 ± 0.09
– | O=C(/C=C/c1ccc(O)c(O)c1/C=C/c1ccc(O)c(O)c1)O[C@H](Cc1ccc(O)c(O)c1)C(=O)O [Salvianolic acid A, salvianolic acid A] | – | – | – | 1.54 ± 0.23 | 1.56 ± 0.05 | 1.32 ± 0.26
– | O=C(O)c1ccc(O)c(O)c1 [Protocatechuic acid, protocatechuic acid] | 1.25 ± 0.08 | 1.25 ± 0.14 | 0.99 ± 0.21 | – | – | –
